{"source": "patent US20260091138A1", "about": "“VARIANTS OF COAGULATION FACTOR VIII AND USES THEREOF” (Seattle Children’s Hospital d/b/a Seattle Children’s …, priority 2022, published 2026)", "key": {"[1]": {"tested_on": "CD4+ T-cells in splenocytes isolated from FVIII-primed HA mice", "assay": "FVIII-specific CD4+ T-cell proliferation assay", "format": "cell-based, mouse", "conditions": "for effect of peptide on CD4+ T-cell proliferation (in words): peptides 0.1 μM to 10 μM; for CD4+ T-cell proliferation: 96 hours, background subtracted", "description": "(§1) CD4^+ T-cell Proliferation Assay. Mice with high titer anti-FVIII inhibitors were generated as described in the Supplemental Methods. Mouse splenocytes were isolated and stained with BD Horizon™ violet cell proliferation dye 450 (VPD450) (BD Biosciences). The labeled splenocytes were cultured and stimulated by adding FVIII as a positive proliferation control, Factor IX as a nonspecific antigen control, or peptides, either glycosylated or non-glycosylated, corresponding to site N2118. Mannan (0.1, 1, and 10 μM, respectively) was added in mannan inhibition experiments. After 96 hours, cells were stained with anti-mouse CD4 and Fixable Viability Stain (Fisher Scientific) and analyzed by flow cytometry (BDT LSR II analyzer (Fisher Scientific)). The enhancement of proliferation was calculated by subtracting the background levels in non-stimulated cells.\nGeneration of hemophilia A mice with high-titer inhibitors. Anti-FVIII inhibitor mice were generated by priming the mice with 3 units (U) of recombinant full-length FVIII in 200 uL PBS 3× a week for four weeks. Mice were then sacrificed on week 5 for spleen collection or boosted one-week prior to spleen collection. Blood was drawn via retro-orbital bleed on the day of sacrifice in the same manner as before in order to measure IgG titer via enzyme-linked immunosorbent assay (ELISA)."}, "[2]": {"tested_on": "CD4+ T-cells in splenocytes isolated from FVIII-primed HA mice", "assay": "Mannan inhibition in FVIII-specific T cell proliferation assay", "format": "cell-based, mouse", "description": "as §1"}, "HA mice [3]": {"tested_on": "HA mice", "assay": "Anti-FVIII inhibitor titers by Bethesda assay after plasmid-mediated gene transfer", "format": "in vivo, mouse", "description": "(§2) Delivery of plasmids carrying BDD-FVIII and its glycosylation variants genes into HA mice. Male HA mice with a FVIII exon 16 knockout in an Sv129/BL6 mixed background between the ages of 8-14 weeks were used in all experiments. Mice were injected with liver-specific plasmids carrying BDD-FVIII and its glycosylation variants genes (FIG. 2) via hydrodynamic injection at a concentration of 25 μg/mL and a volume (ml) equal to 9% the body weight of the mouse (g). A second challenge (SC) of the same plasmids via hydrodynamic injection was performed on Day 86 to elicit robust secondary immune responses. Blood was collected by retro-orbital bleed in one-tenth volume of 3.8% sodium citrate periodically following plasmid injections."}, "HA mice [4]": {"tested_on": "HA mice", "assay": "Total anti-FVIII IgG ELISA after plasmid-mediated gene transfer", "format": "in vivo, mouse", "description": "as §2\nSupplemental Methods. Measurement of total anti-FVIII IgG. 96 well flat bottom ELISA plates (Corning, Kennebunk, ME) were coated overnight at 4° C. with 0.44 U FVIII/well in coating buffer. Plates were then incubated with blocking buffer (1×Tris-Buffered Saline (TBS), 0.1% Tween-20, and 20% non-fat milk for 1 hour at 37° C. Plates were washed three times with wash buffer I 1×TBS and 0.1% Tween-20) between incubation steps. […] Concentrations of anti-FVIII IgG were evaluated by interpolation against the linear range on a standard curve created using mouse isotype control (Thermo Scientific) that was run in duplicate alongside samples on all plates."}, "HA mice [5]": {"tested_on": "HA mice", "assay": "FVIII functional activity (aPTT) and FVIII:Ag after hydrodynamic injection of BDD-FVIII and glycosylation variant plasmids", "format": "in vivo, mouse", "conditions": "one-week post hydrodynamic plasmid injection, average ± SD", "description": "as §2\nFVIII antigen (FVIII:Ag) ELISA. FVIII:Ag levels in mouse plasma post hydrodynamic injection with FVIII plasmids were determined by ELISA using murine anti-FVIII antibody (GMA-8020, Green Mountain Antibody, Burlington, VT) and biotin-labeled murine anti-FVIII antibody (GMA-8015, Green Mountain Antibody, Burlington, VT)."}}, "note": "“Also recorded” adds a separate entry of the source. No end group written: not given here. Man6GlcNAc2 = high-mannose N-glycan (six mannose on two GlcNAc); GlcNAc = N-acetyl-glucosamine (single GlcNAc)", "data": [{"substance": "K2111WQTYRGN2118STGTLMV2125 (KWQTYRGNSTGTLMV; non-glycosylated; UniProt P00451 2130-2144, looked up, fragment) [2118NGP1, non-glycosylated 15-mer FVIII peptide centered around site N2118]", "values": [{"measurement": "effect of peptide on CD4+ T-cell proliferation (in words)", "setting": "[1]", "result": "negligible effects"}, {"measurement": "effect of peptide on CD4+ T-cell proliferation (in words)", "setting": "[1]; listed as NGP1", "result": "negligible effects; also recorded: nearly no proliferation"}]}, {"substance": "mannan", "values": [{"measurement": "inhibition of T cell proliferation by mannan", "setting": "[2]; in response to 0.1 U/ml FVIII", "result": "only partially inhibited"}, {"measurement": "inhibition of T cell proliferation by mannan", "setting": "[2]; in response to 1 U/ml or 10 U/ml FVIII", "result": "no inhibition"}, {"measurement": "inhibition of T cell proliferation by mannan", "setting": "[2]; in response to MP1 at 0.1 and 1 μM", "result": "inhibited"}, {"measurement": "inhibition of T cell proliferation by mannan", "setting": "[2]; in response to all three concentrations of 2118MP1", "result": "inhibited"}]}, {"substance": "N2118Q: BDD-FVIII plasmid variant with N2118Q mutation in the C1 domain eliminating the 2118 glycosylation site (SEQ ID NO: 23)", "values": [{"measurement": "inhibitor responses to FVIII following first plasmid challenge compared to WT BDD-FVIII plasmid", "setting": "HA mice [3]; after first plasmid challenge", "result": "trend of decreased inhibitor responses"}, {"measurement": "inhibitor titer / inhibitor responses post-second challenge", "setting": "HA mice [3]; after second plasmid challenge, compared with WT BDD-FVIII", "result": "significantly lower inhibitor titer; also recorded: statistically significant lower inhibitor responses"}, {"measurement": "inhibitor titers (Bethesda assay) compared to other groups", "setting": "HA mice [3]; day 56, after first plasmid transfer", "result": "lower inhibitor titers; also recorded: Low inhibitor titers"}, {"measurement": "anti-FVIII IgG level compared to the other three groups", "setting": "HA mice [4]; peak around day 56, after first plasmid transfer", "result": "lower antibody levels; also recorded: lower IgG level"}, {"measurement": "drastic increase in anti-FVIII levels after the second challenge", "setting": "HA mice [4]; second plasmid challenge on day 84, hydrodynamic injection", "result": "did not; also recorded: remained at a low level"}, {"measurement": "FVIII functional activity levels in treated mouse plasma (average activity)", "setting": "HA mice [5]", "result": "223±77", "unit": "%"}]}, {"substance": "T2114YRGN2118STGTLMVFFG2128 (TYRGNSTGTLMVFFG; non-glycosylated; UniProt P00451 2133-2147, looked up, fragment) [2118NGP2, non-glycosylated counterpart of 2118MP2]", "values": [{"measurement": "effect of peptide on CD4+ T-cell proliferation (in words)", "setting": "[1]", "result": "nearly no proliferation"}]}, {"substance": "D2108GKKWQTYRGN2118STGT2122 (DGKKWQTYRGN(Man6GlcNAc2)STGT; also: mannosylated; UniProt P00451 2127-2141, looked up, fragment) [2118MP3, mannosylated overlapping 15-mer Peptide 3]", "values": [{"measurement": "effect of peptide on CD4+ T-cell proliferation (in words)", "setting": "[1]", "result": "little to no proliferation"}]}, {"substance": "T2114YRGN2118STGTLMVFFG2128 (TYRGN(Man6GlcNAc2)STGTLMVFFG; also: mannosylated; UniProt P00451 2133-2147, looked up, fragment) [2118MP2, mannosylated overlapping 15-mer Peptide 2]", "values": [{"measurement": "CD4+ T-cell proliferation", "setting": "[1]; peptide 1 μM", "result": "2.9±0.6", "unit": "%"}, {"measurement": "CD4+ T-cell proliferation", "setting": "[1]; peptide 10 μM", "result": "5.5±2.0", "unit": "%"}, {"measurement": "effect of peptide on CD4+ T-cell proliferation (in words)", "setting": "[1]; listed as MP2", "result": "Enhanced proliferation; also recorded: higher proliferation compared to MP1"}]}, {"substance": "K2111WQTYRGN2118STGTLMV2125 (KWQTYRGN(GlcNAc)STGTLMV; UniProt P00451 2130-2144, looked up, fragment) [2118GlcP1, Peptide 1 with a single GlcNAc residue at N2118]", "values": [{"measurement": "effect of peptide on CD4+ T-cell proliferation (in words)", "setting": "[1]", "result": "negligible effects"}]}, {"substance": "FIX: Factor IX as a nonspecific antigen control [reference compound]", "values": [{"measurement": "CD4+ T-cell proliferation response to protein antigen controls", "setting": "[1]; increasing doses of FVIII, FIX as nonspecific antigen control", "result": "no response"}]}, {"substance": "K2111WQTYRGN2118STGTLMV2125 [2118MP1]", "values": [{"measurement": "CD4+ T-cell proliferation", "setting": "[1]; peptide 10 μM", "result": "4.2±1.3", "unit": "%"}, {"measurement": "effect of peptide on CD4+ T-cell proliferation (in words)", "setting": "[1]; listed as MP1", "result": "increased proliferation levels; also recorded: Enhanced proliferation"}]}]}
